Results from patent US20240252650A1, “LIPID COMPOUNDS AND LIPID NANOPARTICLE COMPOSITIONS” (SUZHOU ABOGEN BIOSCIENCES CO., LTD., priority 2021, published 2024).

Key:
[1] = Encapsulation efficiency of lipid nanoparticles (Quant-it Ribogreen RNA quantification assay); assay type: physicochemical; conditions: LNP: cationic lipid/DSPC/cholesterol/PEG-lipid 50:10:38.5:1.5, mRNA; table of Example 15
Experimental: (§1) Briefly, a cationic lipid provided herein, DSPC, cholesterol, and PEG-lipid were solubilized in ethanol at a molar ratio of 50:10:38.5:1.5, and mRNA were diluted in 10 to 50 mM citrate buffer, pH=4. The LNPs were prepared at a total lipid to mRNA weight ratio of approximately 10:1 to 30:1 by mixing the ethanolic lipid solution with the aqueous mRNA solution at a volume ratio of 1:3 using a microfluidic apparatus, total flow rate ranging from 9-30 mL/min. Ethanol were thereby removed and replaced by DPBS using dialysis. Finally, the lipid nanoparticles were filtered through a 0.2 μm sterile filter.
(§2) Lipid nanoparticle size were determined by dynamic light scattering using a Malvern Zetasizer Nano ZS (Malvern UK) using a 173° backscatter detection mode. The encapsulation efficiency of lipid nanoparticles were determined using a Quant-it Ribogreen RNA quantification assay kit (Thermo Fisher Scientific, UK) according to the manufacturer's instructions.

[2] = Lipid nanoparticle size and polydispersity by dynamic light scattering (Malvern Zetasizer Nano ZS); assay type: physicochemical; conditions: LNP: cationic lipid/DSPC/cholesterol/PEG-lipid 50:10:38.5:1.5, mRNA; table of Example 15
Experimental: as §1, §2

[3] = system: female Balb/c mice; experiment: Animal study: LNPs encapsulating luciferase mRNA, tail vein injection, organ bioluminescence imaging (IVIS Spectrum CT); assay type: in vivo; conditions: luciferase mRNA LNP, 0.25 mg/kg tail vein; for luciferase expression in bone marrow (in words): 6 h; for bone marrow* Avg Radiance: bone marrow at 6 h; for brain* Avg Radiance: dissected brain at 6 h; for heart* Avg Radiance: dissected heart at 6 h; for kidney* Avg Radiance: dissected kidney at 6 h; for liver* Avg Radiance: dissected liver at 6 h; for lung* Avg Radiance: dissected lung at 6 h; for spleen* Avg Radiance: dissected spleen at 6 h
Experimental: Lipid nanoparticles comprising certain compounds provided herein encapsulating luciferase encoding (luciferase) mRNA were systemically administered to 6-8 week old female Balb/c mice (Charles River Lab, ZheJiang) at 0.25 mg/kg dose by tail vein injection, and mice blood were sampled at specific time points (e.g., 6 hours) post administration. Optical imaging was performed using the IVIS Spectrum CT device (PerkinElmer Inc., Paris, France). The luminescence level was evaluated by an ROI applied to the injection site zone (Living Image software, PerkinElmer Inc., Paris, France).
Radiance of heart, liver, spleen, lung, kidney, brain and bone marrow were taken at 6 h. Dissected organs were placed on a black sheet and imaged with IVIS Spectrum CT (PerkinElmer, Hopkinton, MA). To quantify bioluminescence emission signal, identical regions of interest (ROI) were positioned to encircle each organ region, the imaging signal was quantitated as average radiance (photons/s/cm2/steradian).

[4] = Apparent pKa of LNP formulations by TNS fluorescence assay; assay type: physicochemical; conditions: LNP cationic lipid/DSPC/cholesterol/DMG-PEG 50/10/38.5/1.5 mol %, table of Example 15
Experimental: As reported in literature, the apparent pKa of LNP formulations correlates with the delivery efficiency of LNPs for nucleic acids in vivo. The apparent pKa of each formulation was determined using an assay based on fluorescence of 2-(p-toluidino)-6-napthalene sulfonic acid (TNS). LNP formulations comprising of cationic lipid/DSPC/cholesterol/DMG-PEG (50/10/38.5/1.5 mol %) in PBS were prepared as described above. TNS was prepared as a 300 uM stock solution in distilled water. LNP formulations were diluted to 0.1 mg/ml total lipid in 3 mL of buffered solutions containing 50 mM sodium citrate, 50 mM sodium phosphate, 50 mM sodium borate, and 30 mM sodium chloride where the pH ranged from 3 to 9. An aliquot of the TNS solution was added to give a final concentration of 0.1 mg/ml and following vortex mixing fluorescence intensity was measured at room temperature in a Molecular Devices Spectramax iD3 spectrometer using excitation and mission wavelengths of 325 nm and 435 nm. A sigmoidal best fit analysis was applied to the fluorescence data and the pKa value was measured as the pH giving rise to half-maximal fluorescent intensity.

| SMILES | Encapsulation Efficiency [1] [%] | polydispersity [2] | size (nm) [2] [nm] | luciferase expression in bone marrow (in words) [3] | bone marrow* Avg Radiance [3] | brain* Avg Radiance [3] | heart* Avg Radiance [3] | kidney* Avg Radiance [3] | liver* Avg Radiance [3] | lung* Avg Radiance [3] | spleen* Avg Radiance [3] | Apparant Pka [4] |
| --- | --- | --- | --- | --- | --- | --- | --- | --- | --- | --- | --- | --- |
| CCCCC/C=C\C/C=C\CCCCCCCC(=O)OCC(COC(=O)CCCC(COC(=O)CCCCCCC)COC(=O)CCCCCCC)COC(=O)OCCCN(CCOCCO)C1CCC1 (stereo not drawn) [Compound 127] | 85.39 | 0.037 | 87.99 | mild expression | 0.95 E+04 p/s/cm^2/sr | 3.91 E+04 p/s/cm^2/sr | 4.33 E+04 p/s/cm^2/sr | 10.77 E+04 p/s/cm^2/sr | 13.01 E+06 p/s/cm^2/sr | 9.38 E+04 p/s/cm^2/sr | 4.76 E+06 p/s/cm^2/sr | 6.398 |
| CCCCC/C=C\C/C=C\CCCCCCCC(=O)OCC(COC(=O)CCCCN(CCCCCCCO)C1CCC1)COC(=O)CCCC(COC(=O)CCCCCCC)COC(=O)CCCCCCC (stereo not drawn) [Compound 129] | 87.05 | 0.033 | 138.5 | mild expression | 2.12 E+04 p/s/cm^2/sr | 12.49 E+04 p/s/cm^2/sr | 13.05 E+04 p/s/cm^2/sr | 17.53 E+04 p/s/cm^2/sr | 30.05 E+06 p/s/cm^2/sr | 11 E+04 p/s/cm^2/sr | 6.57 E+06 p/s/cm^2/sr | 6.477 |
